≈ marks a conversion by molar mass, not a printed value. Calls of active or inactive are those of the source. The calls are words filed in the database; no cut-off is given here.

Data set [1] can be described thus: Displacement of 2-[125I]iodomelatonin from human MT2R transfected in CHO cells incubated for 30 mins. The format is cell-based.
Data set [2] concerns SH-SY5Y. Description: Cytotoxicity against human SH-SY5Y cells at 1 to 100 uM incubated for 24 hrs by MTT method. Type of data set: toxicity, cell-based. Particulars: dose 1-100 µM.
Data set [3] concerns SH-SY5Y. Description: Neuroprotective activity against R/O induced human SH-SY5Y cells oxidative stress model assessed as cell survival at 1 uM preincubated for 24 hrs followed by rotenone oligomycin A addition and measured after 24 hrs by MTT assay. Type of data set: functional. Particulars: read-out: Survival. For orientation: Tetrazolium assays rely on reduction of a dye to a coloured formazan, in cell work by metabolically active cells.

Data set [4] is described as follows: Aqueous solubility of compound incubated for 24 hrs by UV-spectra analysis. Type of data set: physicochemical.
Data set [5] can be described thus: Antioxidant activity assessed as oxygen radical scavenging by measuring trolox equivalents preincubated for 15 mins followed by AAPH addition and measured after 80 mins by fluorescence plate reader assay. Type of data set: functional. As to conditions: time 95.0 min.
Data set [6] is described as follows: Displacement of 2-[125I]iodomelatonin from human MT1R transfected in CHO cells incubated for 30 mins. The format is cell-based.
The target in data set [7] is T1, Ribosyldihydronicotinamide dehydrogenase [quinone] (Homo sapiens, UniProt P16083).
T1 sequence (P16083 whole entry): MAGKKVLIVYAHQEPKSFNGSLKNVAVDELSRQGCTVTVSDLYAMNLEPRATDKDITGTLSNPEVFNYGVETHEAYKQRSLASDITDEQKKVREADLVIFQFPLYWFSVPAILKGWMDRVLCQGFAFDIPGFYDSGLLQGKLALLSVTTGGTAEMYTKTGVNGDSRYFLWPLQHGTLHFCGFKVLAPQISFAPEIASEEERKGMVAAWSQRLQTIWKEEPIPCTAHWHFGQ
The experiment in a line: Inhibition of human QR2 expressed in Escherichia coli preincubated with BNAH or NRH followed by menadione addition by FLUOstar plate reader assay.

Data set [8] in a line: Octanol-water partition coefficient, logD of the compound at pH 8. The format is physicochemical.
Data set [9] in a line: Dissociation constant, pKa of compound. The format is physicochemical.
Data set [10] in a line: Octanol-water partition coefficient, logD of the compound at pH 9. The format is physicochemical.
In data set [11] the test system is NSC. The experiment in a line: Neurogenic activity in C57BL/6 mouse primary NSCs assessed as increase in number of MAP-2 cells at 10 uM incubated for 10 days by DAPI staining based fluorescence confocal microscopy. Type of data set: functional, cell-based. As to conditions: time 10.0 day.
Data set [12] in a line: Octanol-water partition coefficient, logD of the compound at pH 6.5. Type of data set: physicochemical.
A short description of data set [13]: Octanol-water partition coefficient, logD of the compound at pH 5. Type of data set: physicochemical.
A short description of data set [14]: Octanol-water partition coefficient, logD of the compound at pH 6. Type of data set: physicochemical.
In data set [15] the test system is CHO. The experiment in a line: Displacement of 2-[125I]iodomelatonin from human MT1R transfected in CHO cells at 10 uM incubated for 30 mins relative to control. Type of data set: cell-based.
The nature of data set [16]: Octanol-water partition coefficient, logD of the compound at pH 7.4. The format is physicochemical.
The nature of data set [17]: Octanol-water partition coefficient, logD of the compound at pH 1. Type of data set: physicochemical.
Data set [18] can be described thus: Octanol-water partition coefficient, logD of the compound at pH 12. The format is physicochemical.
A short description of data set [19]: Octanol-water partition coefficient, logD of the compound at pH 10. Type of data set: physicochemical.
Data set [20] can be described thus: Octanol-water partition coefficient, logD of the compound at pH 2. The format is physicochemical.
Data set [21] deals with T2, Polyunsaturated fatty acid 5-lipoxygenase (Homo sapiens, UniProt P09917).
T2 sequence (P09917 whole entry): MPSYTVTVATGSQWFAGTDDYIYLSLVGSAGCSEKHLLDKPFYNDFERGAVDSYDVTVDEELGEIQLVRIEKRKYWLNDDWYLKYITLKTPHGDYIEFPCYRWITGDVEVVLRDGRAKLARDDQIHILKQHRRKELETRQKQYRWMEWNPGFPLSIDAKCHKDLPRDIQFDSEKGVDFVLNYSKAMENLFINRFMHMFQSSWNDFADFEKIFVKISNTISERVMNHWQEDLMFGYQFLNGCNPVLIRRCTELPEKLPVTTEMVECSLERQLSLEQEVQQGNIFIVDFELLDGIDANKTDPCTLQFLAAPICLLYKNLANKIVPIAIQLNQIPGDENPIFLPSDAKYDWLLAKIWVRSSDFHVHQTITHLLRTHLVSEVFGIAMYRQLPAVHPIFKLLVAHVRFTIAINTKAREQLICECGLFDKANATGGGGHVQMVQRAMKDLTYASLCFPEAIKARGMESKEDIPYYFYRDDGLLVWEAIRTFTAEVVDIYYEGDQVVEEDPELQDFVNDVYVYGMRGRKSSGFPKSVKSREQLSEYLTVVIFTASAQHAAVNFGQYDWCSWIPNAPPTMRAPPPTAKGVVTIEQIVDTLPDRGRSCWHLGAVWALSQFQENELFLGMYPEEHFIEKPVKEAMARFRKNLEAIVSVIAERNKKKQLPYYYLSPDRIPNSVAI
Description: Inhibition of human LOX-5 preincubated for 10 mins followed by AA addition and measured after 20 mins in presence of ATP by fluorescence based assay.

Data set [22] has as its system SH-SY5Y. Description: Neuroprotective activity against R/O induced human SH-SY5Y cells oxidative stress model assessed as increase in cell survival preincubated for 24 hrs followed by rotenone oligomycin A addition and measured after 24 hrs by MTT assay. The format is functional, cell-based. As to conditions: dose 0.01-10 µM, time 48.0 hrs.
Data set [23] concerns the target T3, Amine oxidase [flavin-containing] A (Homo sapiens, UniProt P21397).
T3 sequence (P21397 whole entry): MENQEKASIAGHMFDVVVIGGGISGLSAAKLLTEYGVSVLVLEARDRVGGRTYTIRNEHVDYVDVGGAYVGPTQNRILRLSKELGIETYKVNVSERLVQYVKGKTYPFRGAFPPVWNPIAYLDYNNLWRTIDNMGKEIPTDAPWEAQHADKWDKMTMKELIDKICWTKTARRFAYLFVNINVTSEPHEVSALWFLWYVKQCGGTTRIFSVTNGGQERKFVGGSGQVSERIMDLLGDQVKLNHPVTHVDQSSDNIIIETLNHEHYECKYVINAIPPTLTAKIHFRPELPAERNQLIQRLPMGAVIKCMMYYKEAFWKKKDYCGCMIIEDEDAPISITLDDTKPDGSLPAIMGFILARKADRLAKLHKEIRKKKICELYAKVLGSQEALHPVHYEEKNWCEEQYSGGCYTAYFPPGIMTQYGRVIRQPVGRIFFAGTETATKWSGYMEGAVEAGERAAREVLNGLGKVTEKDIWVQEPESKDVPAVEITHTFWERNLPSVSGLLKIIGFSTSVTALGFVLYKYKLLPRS
The experiment in a line: Inhibition of human MAO-A expressed in baculovirus infected BTI insect cells preincubated for 15 mins followed by p-tyramine addition by amplex red reagent based fluorescence microplate reader assay.

Data set [24] can be described thus: Octanol-water partition coefficient, logD of the compound at pH 11. Type of data set: physicochemical.
Data set [25] can be described thus: Octanol-water partition coefficient, logD of the compound at pH 4. Type of data set: physicochemical.
Data set [26] is described as follows: Octanol-water partition coefficient, logD of the compound at pH 7. The format is physicochemical.
The target in data set [27] is T4, Amine oxidase [flavin-containing] B (Homo sapiens, UniProt P27338).
T4 sequence (P27338 whole entry): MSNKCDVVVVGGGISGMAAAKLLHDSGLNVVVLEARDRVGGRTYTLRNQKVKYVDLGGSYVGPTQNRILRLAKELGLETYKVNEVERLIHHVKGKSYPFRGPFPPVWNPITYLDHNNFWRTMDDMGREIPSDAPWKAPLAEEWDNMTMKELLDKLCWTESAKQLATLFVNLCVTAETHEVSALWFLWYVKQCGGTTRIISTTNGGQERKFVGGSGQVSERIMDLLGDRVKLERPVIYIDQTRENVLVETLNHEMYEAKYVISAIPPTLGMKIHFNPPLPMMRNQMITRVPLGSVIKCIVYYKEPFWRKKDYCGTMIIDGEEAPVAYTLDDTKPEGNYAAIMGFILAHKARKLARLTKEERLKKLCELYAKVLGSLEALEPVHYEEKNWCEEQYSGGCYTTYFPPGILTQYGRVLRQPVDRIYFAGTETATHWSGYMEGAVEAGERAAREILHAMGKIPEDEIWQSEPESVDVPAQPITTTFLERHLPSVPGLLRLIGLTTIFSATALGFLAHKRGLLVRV
The experiment in a line: Inhibition of human MAO-B expressed in baculovirus infected BTI insect cells preincubated for 15 mins followed by p-tyramine addition by amplex red reagent based fluorescence microplate reader assay. The format is cell-based.

Data set [28] can be described thus: Octanol-water partition coefficient, logD of the compound at pH 1.2. Type of data set: physicochemical.
The nature of data set [29]: Octanol-water partition coefficient, logD of the compound at pH 3. The format is physicochemical.
The subject of data set [30] is NSC. The experiment in a line: Neurogenic activity in C57BL/6 mouse primary NSCs assessed as increase in number of TuJ-1 cells at 10 uM incubated for 10 days by DAPI staining based fluorescence confocal microscopy. As to conditions: time 10.0 day. The format is functional, cell-based.

Take `COc1ccc2[nH]cc(CCNC(C)=O)c2c1` [MELATONIN]: the Ki (as a rule, a dissociation constant, usually derived from enzyme kinetics or from competition with a known ligand) in [1] came out at 0.13 nM; in data set [6], 0.27 nM. For the same compound, the Activity result is “Non-Toxic” in [2] and 2.3 in data set [5]. In addition, the viability at 1 µM in [3] is 43%. Further, the concentration in solution in data set [4] (solubility at 24 h) was 6.64 mM (≈ 1540 µg/mL).
Consider `COc1ccc2c(n1)c(CCNC(=O)c1ccco1)c1n2Cc2cccnc2-1`, for which it took 5 nM to reach half-maximal inhibition in data set [7] (IC50).
Consider `COc1ccc2c(c1)CC(c1c[nH]c3ccc(OC)cc13)N2` (stereo unspecified), for which the Ki in [1] is 620 nM; in [6], ~10000 nM. Also, the Activity entry in data set [2] was “Non-Toxic”; in data set [15] it was 58%; in data set [22] it was “Dose-Dependent Effect”; in data set [5], 2.3. Moreover, the logD (commonly lipophilicity at a set pH, counting ionised and neutral species) came to 3.31 in data set [8]; 3.31 in data set [10]; 3.3 in data set [12]; 2.97 in data set [13]; 3.26 in [14]; 3.31 in data set [16]. The logD was found to be 1.66 in data set [17]; 3.31 in data set [18]; 3.31 in data set [19]; 1.67 in [20]; 3.31 in [24]; 2.28 in data set [25]. In addition, the values for the logD in data set [26], in data set [28] and in [29] were 3.31, 1.65 and 1.78, respectively. Besides, the pKa (usually the negative logarithm of the acid dissociation constant) in data set [9] came to 5.26. In addition, the result in [11] and in data set [30] was Active. Besides, the viability at 1 µM in data set [3] was 50%. Besides, in data set [4], the concentration in solution (solubility at 24 h) came to 0.0329 mM (≈ 9.68 µg/mL). Also, the IC50 (commonly the midpoint of a concentration-inhibition curve) in data set [21] was determined as 5300 nM; in data set [23], 2540 nM; in data set [27], 3690 nM.

Values taken from ChEMBL document CHEMBL6071143, “Discovery of a potent melatonin-based inhibitor of quinone reductase-2 with neuroprotective and neurogenic properties” (Eur J Med Chem, 2024).
